Measurements as given in patent US20240246946A1, “MODULATORS OF TREX1” (Constellation Pharmaceuticals, Inc., priority 2021, published 2024).

What was measured:
[1] = target: T1, full length mouse TREX1 (Mus musculus, UniProt Q91XB0); assay: mTREX1 Biochemical Assay (fluorescence, dsDNA substrate degradation); conditions: biochemical, read-out: mTREX1 IC50
T1 construct: N-terminally His-Tev tagged full length mouse TREX1; made in house; host or cells: E. coli
T1 sequence (Q91XB0 1-314): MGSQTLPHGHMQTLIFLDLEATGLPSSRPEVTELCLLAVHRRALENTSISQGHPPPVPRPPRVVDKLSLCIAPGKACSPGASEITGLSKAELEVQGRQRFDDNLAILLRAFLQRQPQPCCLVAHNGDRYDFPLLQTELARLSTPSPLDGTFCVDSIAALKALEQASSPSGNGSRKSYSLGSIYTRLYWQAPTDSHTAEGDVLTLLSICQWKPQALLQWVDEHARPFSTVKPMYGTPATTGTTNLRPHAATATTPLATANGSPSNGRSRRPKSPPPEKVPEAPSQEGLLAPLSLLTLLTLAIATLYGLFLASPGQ
Procedure, shortened: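 Reaction run 18 h at 25° C. with 60 nM TEX615/quencher-labelled dsDNA and 6 pM mouse TREX1 in Tris buffer (pH 7.4, 5 mM MgCl2, 1.0% DMSO), enzyme having sat 4 h with compound across 10 concentrations. EDTA quench; substrate degradation measured as fluorescence increase.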

[2] = target: T2, human TREX2 (residues M44-A279) (Homo sapiens, UniProt Q9BQ50); assay: hTREX2 Biochemical Assay (fluorescence, dsDNA substrate degradation); conditions: biochemical selectivity for hTREX1 vs hTREX2
T2 construct: human TREX2 (residues M44-A279, expressed in E. coli); made in house; host or cells: E. coli
T2 sequence (Q9BQ50 44-279 isoform Q9BQ50-1): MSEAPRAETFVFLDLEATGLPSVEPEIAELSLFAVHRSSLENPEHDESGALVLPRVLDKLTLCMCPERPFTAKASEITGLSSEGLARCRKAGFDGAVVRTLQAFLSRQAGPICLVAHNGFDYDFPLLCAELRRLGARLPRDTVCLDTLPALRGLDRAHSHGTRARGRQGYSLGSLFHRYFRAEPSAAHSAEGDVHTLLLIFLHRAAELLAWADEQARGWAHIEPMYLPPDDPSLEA
Procedure, shortened: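 N-His-Tev E. coli enzyme (50 pM) pre-incubated with compound 4 h at 25 °C, then 60 nM TEX615/quencher dsDNA added; 18 h at 25 °C, pH 7.4 Tris buffer with 5 mM MgCl2, 1.0% DMSO. EDTA-quenched; fluorescence 570 ex/615 em from liberated fluorophore, 10-point dose-response.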

CC(c1nc(C(=O)Nc2cnoc2)c(O)c(=O)n1C)C(c1cnn(CC(F)(F)F)c1)c1ccccc1C#N (single isomer, unassigned) [Example 22 D1E1]
IC50 [1]: 1 to 10 nM

CC(c1nc(C(=O)Nc2cnoc2)c(O)c(=O)n1C)C(c1cnn(C)c1)c1ccccc1Cl (single isomer, unassigned) [Example 77 D1E1]
hTREX1 vs hTREX2 selectivity [2]: C (C = >50 fold selective for hTREX1)
IC50 [1]: 1 to 10 nM

CCn1c(C(C)C(c2cnn(C)c2)c2ccccc2C#N)nc(C(=O)Nc2cnoc2)c(O)c1=O (single isomer, unassigned) [Example 149 D1E2]
hTREX1 vs hTREX2 selectivity [2]: C (C = >50 fold selective for hTREX1)
IC50 [1]: 1 to 10 nM

Cc1ncc(C(c2cc(F)ccc2C#N)C(C)c2nc(C(=O)Nc3cnoc3)c(O)c(=O)n2C)nc1C (single isomer, unassigned) [Example 124 D1E2]
hTREX1 vs hTREX2 selectivity [2]: B (B = 25 to 50-fold selective for hTREX1)
IC50 [1]: 1 to 10 nM

CCn1cc(C(c2ccc(F)cc2C#N)C(C)c2nc(C(=O)Nc3cnoc3)c(O)c(=O)n2C)cn1 (single isomer, unassigned) [Example 16 D1E1]
hTREX1 vs hTREX2 selectivity [2]: C (C = >50 fold selective for hTREX1)
IC50 [1]: < 1 nM

CC(c1nc(C(=O)Nc2cnoc2)c(O)c(=O)n1C)C(c1cnn(C)c1)c1cc(F)ccc1C#N (single isomer, unassigned) [Example 14 D1E2]
hTREX1 vs hTREX2 selectivity [2]: C (C = >50 fold selective for hTREX1)
IC50 [1]: 1 to 10 nM

CCn1cc(C(c2ccccc2C#N)C(C)c2nc(C(=O)Nc3cnoc3)c(O)c(=O)n2C)cn1 (single isomer, unassigned) [Example 13 D1E1]
hTREX1 vs hTREX2 selectivity [2]: C (C = >50 fold selective for hTREX1)
IC50 [1]: < 1 nM

CC(c1nc(C(=O)Nc2cnoc2)c(O)c(=O)n1C)C(c1cnn(CC2CC2)c1)c1ccccc1C#N (single isomer, unassigned) [Example 23 D1E2]
hTREX1 vs hTREX2 selectivity [2]: C (C = >50 fold selective for hTREX1)
IC50 [1]: 1 to 10 nM

CCn1cc(C(c2cc(F)ccc2C#N)C(C)c2nc(C(=O)Nc3cnoc3)c(O)c(=O)n2C)cn1 (single isomer, unassigned) [Example 17 D1E2]
IC50 [1]: < 1 nM

CC(c1nc(C(=O)Nc2cnoc2)c(O)c(=O)n1C)C(c1cnn(C)c1)c1ccccc1C#N (single isomer, unassigned) [Example 2 D1E1]
hTREX1 vs hTREX2 selectivity [2]: C (C = >50 fold selective for hTREX1)
IC50 [1]: 1 to 10 nM

CC(c1nc(C(=O)Nc2cnoc2)c(O)c(=O)n1C)C(c1cnn(C)c1)c1cc(Cl)ccc1C#N (single isomer, unassigned) [Example 26 D1E2]
IC50 [1]: 1 to 10 nM

CC(c1nc(C(=O)Nc2cnoc2)c(O)c(=O)n1C)C(c1ccccc1C#N)c1cn(C)nc1F (single isomer, unassigned) [Example 91 D1E1]
hTREX1 vs hTREX2 selectivity [2]: B (B = 25 to 50-fold selective for hTREX1)
IC50 [1]: < 1 nM

Cc1cc(C(c2cc(F)ccc2C#N)C(C)c2nc(C(=O)Nc3cnoc3)c(O)c(=O)n2C)n(C)n1 (single isomer, unassigned) [Example 111 D1E2]
hTREX1 vs hTREX2 selectivity [2]: B (B = 25 to 50-fold selective for hTREX1)
IC50 [1]: 1 to 10 nM

Cc1nc(C)c(C(c2ccccc2C#N)C(C)c2nc(C(=O)Nc3cnoc3)c(O)c(=O)n2C)nc1C (single isomer, unassigned) [Example 122 D1E1]
hTREX1 vs hTREX2 selectivity [2]: C (C = >50 fold selective for hTREX1)
IC50 [1]: < 1 nM

C[C@H](c1nc(C(=O)Nc2cnoc2)c(O)c(=O)n1C)[C@@H](c1cc(F)ccc1C#N)c1cn(C)nc1C#N [Example 59 D1E2]
hTREX1 vs hTREX2 selectivity [2]: C (C = >50 fold selective for hTREX1)
IC50 [1]: < 1 nM

CC(c1nc(C(=O)Nc2cnoc2)c(O)c(=O)n1C)C(c1cnn(C(F)F)c1)c1ccccc1C#N (single isomer, unassigned) [Example 38 D1E1]
IC50 [1]: < 1 nM

CC(c1nc(C(=O)Nc2cnoc2)c(O)c(=O)n1C)C(c1ccccc1C#N)c1cn(C)nc1C#N (single isomer, unassigned) [Example 10 D1E1]
hTREX1 vs hTREX2 selectivity [2]: C (C = >50 fold selective for hTREX1)
IC50 [1]: < 1 nM

Cc1cncc(C(c2ccccc2C#N)C(C)c2nc(C(=O)Nc3cnoc3)c(O)c(=O)n2C)n1 (single isomer, unassigned) [Example 53 D1E2]
hTREX1 vs hTREX2 selectivity [2]: C (C = >50 fold selective for hTREX1)
IC50 [1]: 1 to 10 nM

Cc1nn(C)c(C)c1C(c1ccccc1C#N)C(C)c1nc(C(=O)Nc2cnoc2)c(O)c(=O)n1C (single isomer, unassigned) [Example 78 D1E1]
IC50 [1]: 1 to 10 nM

Cc1ncc(C(c2ccccc2Cl)C(C)c2nc(C(=O)Nc3cnoc3)c(O)c(=O)n2C)nc1C (single isomer, unassigned) [Example 125 D1E2]
hTREX1 vs hTREX2 selectivity [2]: B (B = 25 to 50-fold selective for hTREX1)
IC50 [1]: 1 to 10 nM

Cc1nn(C)cc1C(c1cc(F)ccc1C#N)C(C)c1nc(C(=O)Nc2cnoc2)c(O)c(=O)n1C (single isomer, unassigned) [Example 57 D1E2]
hTREX1 vs hTREX2 selectivity [2]: C (C = >50 fold selective for hTREX1)
IC50 [1]: 1 to 10 nM

CC(c1nc(C(=O)Nc2cnoc2)c(O)c(=O)n1C)C(c1cnn(C(C)C)c1)c1ccccc1C#N (single isomer, unassigned) [Example 105 D1E2]
hTREX1 vs hTREX2 selectivity [2]: B (B = 25 to 50-fold selective for hTREX1)
IC50 [1]: 1 to 10 nM

Cc1cnc(C(c2cc(F)ccc2C#N)C(C)c2nc(C(=O)Nc3cnoc3)c(O)c(=O)n2C)cn1 (single isomer, unassigned) [Example 115 D1E2]
hTREX1 vs hTREX2 selectivity [2]: B (B = 25 to 50-fold selective for hTREX1)
IC50 [1]: 1 to 10 nM

Cc1ncc(C(c2ccccc2C#N)C(C)c2nc(C(=O)Nc3cnoc3)c(O)c(=O)n2C)nc1C (single isomer, unassigned) [Example 81 D1E2]
hTREX1 vs hTREX2 selectivity [2]: C (C = >50 fold selective for hTREX1)
IC50 [1]: 1 to 10 nM
